Activity calls are given as the source filed them. The rule behind the calls is not given here.
What was measured:
[1] = biological target: T1, Bifunctional epoxide hydrolase 2 (Mus musculus, UniProt P34914); assay: biochemical
T1 sequence (P34914 whole entry): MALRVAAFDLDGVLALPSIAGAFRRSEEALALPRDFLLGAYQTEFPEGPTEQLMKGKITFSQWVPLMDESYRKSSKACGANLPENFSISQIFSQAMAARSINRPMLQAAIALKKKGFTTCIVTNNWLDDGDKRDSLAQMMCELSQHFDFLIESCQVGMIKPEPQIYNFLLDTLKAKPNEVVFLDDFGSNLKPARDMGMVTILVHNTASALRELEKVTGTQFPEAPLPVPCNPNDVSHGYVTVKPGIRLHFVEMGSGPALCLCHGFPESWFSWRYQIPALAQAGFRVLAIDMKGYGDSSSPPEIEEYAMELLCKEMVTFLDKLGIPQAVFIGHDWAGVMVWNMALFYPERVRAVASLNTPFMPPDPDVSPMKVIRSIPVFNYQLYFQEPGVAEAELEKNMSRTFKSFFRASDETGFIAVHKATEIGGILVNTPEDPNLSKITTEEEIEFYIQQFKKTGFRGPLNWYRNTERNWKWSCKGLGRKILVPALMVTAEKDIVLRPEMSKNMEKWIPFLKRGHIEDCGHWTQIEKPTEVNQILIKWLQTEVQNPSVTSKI
Description: Inhibition of C57BL/6J mouse brain sEH using 14,15-EET as substrate preincubated for 15 mins followed by substrate addition by HPLC-MS analysis

Rattus norvegicus [2] = assay: Anti-inflammatory activity in Sprague-Dawley rat model of CFA-induced rheumatoid arthritis assessed as […] in connective tissue proliferation in synovial tissue at 10 mg/kg, po administered daily measured after 19 days by H and E staining based analysis; format: functional, organism-based; conditions: time 19.0 day
[3] = Ratio of Cmax in brain to plasma in C57BL/6J mouse at 20 mg/kg, po measured for 24 hrs; format: ADME, organism-based; conditions: brain and plasma
Mus musculus [4] = assay: (§1) Anti-inflammatory activity in CD-1 mouse model of cerulein-induced acute pancreatitis assessed as decrease in neutrophil infiltration in pancreas at 10 mg/kg, ip drug administered at 30 mins and 2.5 hrs post-first cerulein injection and measured after 6 hrs post-first cerulein injection by H and E staining based analysis; format: functional, organism-based; conditions: time 3.5-5.5 hrs
Mus musculus [5] = assay: Anti-inflammatory activity in BALB/c mouse model of carrageenan-induced paw edema assessed as increase in ratio of 14,15-EET to DHET plasma levels at 10 mg/kg, po measured after 6 hrs relative to control; format: functional
[6] = Clearance in Sprague-Dawley rat at 20 mg/kg, po measured for 24 hrs; format: ADME, organism-based; conditions: in vivo
Rattus norvegicus [7] = assay: Anti-inflammatory activity in Sprague-Dawley rat model of CFA-induced rheumatoid arthritis assessed as improvement in joint tissue structure at 10 mg/kg, po administered daily measured after 19 days by H and E staining based analysis; format: functional, organism-based; conditions: time 19.0 day
Mus musculus [8] = assay: Anti-inflammatory activity in BALB/c mouse model of carrageenan-induced paw edema assessed as inhibition of paw swelling at 20 mg/kg, po measured for 0.5 hrs relative to control; format: functional; conditions: Mus musculus, BALB/c
Cytochrome P450 1A2 = biological target: T2, Cytochrome P450 1A2 (Homo sapiens, UniProt P05177); assay: Inhibition of CYP1A2 in human liver microsomes preincubated for 10 mins followed by NADPH addition measured after 3.5 mins by LC-MS/MS analysis; format: ADME, Microsome
T2 sequence (P05177 whole entry): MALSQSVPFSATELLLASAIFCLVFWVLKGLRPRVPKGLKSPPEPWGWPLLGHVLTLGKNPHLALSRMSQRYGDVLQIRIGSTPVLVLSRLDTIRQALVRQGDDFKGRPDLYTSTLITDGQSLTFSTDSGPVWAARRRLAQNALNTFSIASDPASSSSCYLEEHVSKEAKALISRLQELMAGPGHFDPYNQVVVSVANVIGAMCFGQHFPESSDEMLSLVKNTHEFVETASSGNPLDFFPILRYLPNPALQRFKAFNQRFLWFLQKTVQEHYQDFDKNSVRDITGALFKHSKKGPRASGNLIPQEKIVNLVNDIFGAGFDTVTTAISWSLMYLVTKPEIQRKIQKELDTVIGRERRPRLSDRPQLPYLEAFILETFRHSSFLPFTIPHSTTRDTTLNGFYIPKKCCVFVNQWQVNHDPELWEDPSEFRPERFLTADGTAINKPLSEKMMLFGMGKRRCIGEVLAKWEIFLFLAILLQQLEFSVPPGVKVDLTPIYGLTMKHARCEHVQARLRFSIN

[9] = Cmax in plasma of C57BL/6J mouse at 20 mg/kg, po measured for 24 hrs; format: ADME, organism-based
[10] = AUC (0 to 24 hrs) in kidney of C57BL/6J mouse at 20 mg/kg, po measured for 24 hrs; format: ADME, organism-based
Rattus norvegicus [11] = assay: Anti-inflammatory activity in Sprague-Dawley rat model of CFA-induced rheumatoid arthritis assessed as increase in plasma 8,9-EET level at 10 mg/kg, po administered daily measured after 19 days relative to control; format: functional; conditions: time 19 day
[12] = In vivo inhibition of pancreatic sEH in CD-1 mouse model of cerulein-induced acute pancreatitis 10 mg/kg, ip drug administered at 30 mins and 2.5 hrs post-first cerulein injection and measured after 6 hrs post-first cerulein injection; format: functional; conditions: time 3.5-5.5 hrs
Rattus norvegicus [13] = assay: Anti-inflammatory activity in Sprague-Dawley rat model of CFA-induced rheumatoid arthritis assessed as decrease in joint deformity at 10 mg/kg, po administered daily measured after 7 days; format: functional, organism-based; conditions: time 7.0 day
Mus musculus [14] = assay: as §1, with “pancreatic edema” for “neutrophil infiltration in pancreas”; format: functional, organism-based; conditions: time 3.5-5.5 hrs
Mus musculus [15] = assay: Effect on ratio of 5,6-EET to DHET plasma levels in BALB/c mouse model of carrageenan-induced paw edema at 10 mg/kg, po measured after 6 hrs; format: functional, organism-based
Mus musculus [16] = assay: Anti-inflammatory activity in CD-1 mouse model of cerulein-induced acute pancreatitis assessed as increase in ratio of plasma 8,9-EET/DHET level at 10 mg/kg, ip drug administered at 30 mins and 2.5 hrs post-first cerulein injection and measured after 6 hrs post-first cerulein injection (reference value: 69.8 to 77.3 %); format: functional; conditions: time 3.5-5.5 hrs
Mus musculus [17] = assay: Anti-inflammatory activity in BALB/c mouse model of carrageenan-induced paw edema assessed as increase in plasma 8,9-EET levels at 10 mg/kg, po measured after 6 hrs relative to control; format: functional
Cytochrome P450 2C19 = Cytochrome P450 2C19 (Homo sapiens, UniProt P33261); assay: Inhibition of CYP2C19 in human liver microsomes preincubated for 10 mins followed by NADPH addition measured after 3.5 mins by LC-MS/MS analysis; format: ADME, Microsome
[18] = Volume of distribution in Sprague-Dawley rat at 5 mg/kg, iv measured for 24 hrs; format: ADME, organism-based; conditions: in vivo
Rattus norvegicus [19] = assay: Anti-inflammatory activity in Sprague-Dawley rat model of CFA-induced rheumatoid arthritis assessed as decrease in swelling degree of right paw at 10 mg/kg, po administered daily measured after 4 days; format: functional, organism-based; conditions: time 4.0 day
[20] = Ratio of Cmax in kidney to plasma in C57BL/6J mouse at 20 mg/kg, po measured for 24 hrs; format: ADME, organism-based; conditions: kidney and plasma
Mus musculus [21] = assay: Analgesic effect in BALB/c mouse model of acetic acid-induced writhing assessed as reduction in number of writhing episodes at 20 mg/kg, po pretreated for 1 hr followed by acetic acid treatment and measured after 5 to 35 mins relative to control; format: functional; design: scale not given: the % may be the effect or the level left; conditions: time 65-95 min
[22] = Ratio of AUC (0 to 24 hrs) in kidney to plasma in C57BL/6J mouse at 20 mg/kg, po measured for 24 hrs; format: ADME, organism-based; conditions: kidney and plasma, read-out: Ratio AUC

Sequence of Cytochrome P450 2C19 (P33261 whole entry): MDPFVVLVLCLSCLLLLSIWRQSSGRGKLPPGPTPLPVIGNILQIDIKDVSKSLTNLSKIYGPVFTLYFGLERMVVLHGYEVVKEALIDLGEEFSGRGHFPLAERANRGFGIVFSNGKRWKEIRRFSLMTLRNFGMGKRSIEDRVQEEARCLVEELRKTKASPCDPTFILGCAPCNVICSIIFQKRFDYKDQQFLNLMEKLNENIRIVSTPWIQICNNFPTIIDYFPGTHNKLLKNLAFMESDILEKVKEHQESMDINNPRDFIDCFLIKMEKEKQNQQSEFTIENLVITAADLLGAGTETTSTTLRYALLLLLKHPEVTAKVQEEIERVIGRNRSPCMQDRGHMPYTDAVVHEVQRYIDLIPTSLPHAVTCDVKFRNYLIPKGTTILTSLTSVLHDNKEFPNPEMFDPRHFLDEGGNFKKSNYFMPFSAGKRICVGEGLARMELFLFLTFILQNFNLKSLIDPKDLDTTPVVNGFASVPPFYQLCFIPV

IC50 [1]: 0.51 nM
Kp at 24 h [3]: 0.06
CL/F [6]: 470 mL/min/kg
IC50 (Cytochrome P450 1A2): > 50 µM
Cmax [9]: 482 ng/mL
AUC(0-t) at 24 h [10]: 17200 ng·h/mL
IC50 (Cytochrome P450 2C19): 9.5 µM
Vd [18]: 1.39 L/kg
Kp at 24 h [20]: 9.43
Kp at 24 h [22]: 32.4
SMILES: COc1cc(CC(=O)N2CCC(NC(=O)NCc3ccc(OC(F)(F)F)cc3)CC2)cc(OC)c1
Activity (Rattus norvegicus [2]): Active; Minimal Connective Tissue Proliferation Was Observed
Activity (Mus musculus [4]): Active
Activity (Mus musculus [5]): 677%
Activity (Rattus norvegicus [7]): Active
inhibition in vivo at 20 mg/kg (Mus musculus [8]): 29.5%
Activity (Rattus norvegicus [11]): 105%
inhibition in vivo at 10 mg/kg [12]: 44.7%
Activity (Rattus norvegicus [13]): Active
Activity (Mus musculus [14]): Active
Activity (Mus musculus [15]): No effect
Activity (Mus musculus [16]): 558%
Activity (Mus musculus [17]): 28.7%
Activity (Rattus norvegicus [19]): Active
Activity (Mus musculus [21]): 42%

Reference: ChEMBL document CHEMBL6109155, “Discovery of Phenylacylpiperidine as Novel sEH Inhibitors through Scaffold Hopping of Natural Stilbene” (J Med Chem, 2025)
